Source: patent US6485922B1, “Methods for detecting compounds which modulate the activity of an LPA receptor” (Atairgin Technologies, Inc., priority 1997, dated 2002)

Key:
yeast cells = assay: Toxicity of lipids to the yeast cells in the lacZ assay; type: cell-based, Saccharomyces cerevisiae; details: yeast culture
Procedure: Expression of the EDG-2: To test the effects of the SST2 gene product on the edg-2 response to LPA, JEY5 (sst2Δ) expressing the EDG-2 receptor was compared to the parental SY2069 strain (SST2^+). […] As a control, JEY5+EDG-2 was assayed in 2% glucose such that the GAL1 promoter would be repressed and thus not expressing the edg-2 gene (glucose repression is described in detail by Johnston, M., and Carlson, M. (1992) in The molecular and cellular biology of the yeast Saccharomyces: gene expression (Broach, J. R., Pringle, J. R., and Jones, E. W., eds), pp. 193-281, Cold Spring Harbor Laborartory Press, Plainview, N.Y.). lacZ assays in response to phospholipids: JEY5+pJE15 was grown on SC media containing either 2% galactose or 2% glucose lacking uracil to an approximate optical density of 0.1-0.5 prior to the addition of lipid or α-factor. LPA and other glycerophospholipids (Avanti Polar Lipids) were dissolved in chloroform and dried down under vacuum immediately prior to experiments and resuspended in BBS/EDTA (50 mM NH4HCO3, 104 mM NaCl, 250 mM EDTA2Na) at 1 mg/ml with sonication until the solution was clear. Sphingosine-1-phosphate (Matreya) was resuspended in ethanol/water (9:1) pH 3.0 immediately prior to use. […] Color development was measured at A420 and normalized to A600. Units were expressed as Miller Units. […]

human LPA receptor EDG-2 = target: T1, human LPA receptor EDG-2 (Homo sapiens, UniProt Q92633); assay: FUS1::lacZ (β-galactosidase) reporter assay in yeast expressing EDG-2; type: cell-based; details: for activation of EDG-2 (FUS1::lacZ activity): concentrations up to 200 μM, S.C.+2% galactose; for activity towards EDG-2 of liposome preparations on their own: liposomes without LPA
T1 construct: The EDG-2 coding region was amplified by RT-PCR using Pfu DNA polymerase; expressed in transfected cells; host or cells: Saccharomyces cerevisiae JEY5 (sst2-, far1, FUS1::lacZ), plasmid pYEUra3-Edg2 (pJE15), galactose-inducible
Procedure: SY2069 (Mata, far1-bad3, HIS3::pFUS1::HIS3, mfa2-Δ1::pFUS1::lacZ, ura3, leu2, ade1, arg4, trp1) was used to derive an sst2^− strain for subsequent studies. SST2 was disrupted using pBC14 (Dohlman, H. G., et al. (1996) Mol. Cell. Biol. 16(9), 5194-5209). pBC14 was digested with NcoI and transformed into SY2069 by lithium acetate using the URA3 gene for selection. Ura^+ colonies were grown in non-selective media (YEPD) and plated onto media containing 5-Flouro-orotic Acid (5-FOA, Sigma). The resultant 5-FOA resistant isolates were tested for the supersensitive phenotype by assaying lacZ activity in response to α-factor (data not shown). One sst2^− strain was named JEY5 and used in all subsequent studies. Yeast were grown in SC+2% Galactose or 2% Glucose media lacking Uracil.
Construction of EDG-2 Expression Plasmid and Expression in Yeast: The EDG-2 coding region was amplified by RT-PCR using Pfu DNA polymerase under conditions described by the supplier (Stratagene). The template for RT-PCR was cDNA (5 ng) that was reverse transcribed from human fetal brain total RNA (Clontech) using SuperScript II Reverse Transcriptase as described by the supplier (Gibco BRL). 1 μM each of the following primers, FP; 5′-[…]-3′ (SEQ ID NO. 2) and RP; 5′-[…]-3′ (SEQ ID NO. 3), were used for RT-PCR. Oligonucleotide Synthesis and DNA Sequencing: PCR primers and DNA sequencing primers were synthesized by the phosphoramidite method with an Applied Biosystems model 394 synthesizer, purified by polyacrylamide gel electrophoresis and desalted on Sep-Pak C18 cartridges (Waters Associates, Milford, Mass.). The edg-2 cDNA was sequenced in pYEUra3 by the dideoxy chain termination method using the T7 Sequenase7-deaza-dGTP sequencing kit as described by the supplier (Amersham Life Science). The primers were designed based on the human edg-2 cDNA sequence submitted to Genbank by Zondag and Moolenaar (accession no. Y09479) and included restriction site extensions for subcloning into the pYEUra3 vector (Stratagene). This placed the cDNA under the control of a galactose-inducible promoter (UASgal). The resulting plasmid was used to transform JEY5 by the lithium acetate method.
Expression of the EDG-2: To test the effects of the SST2 gene product on the edg-2 response to LPA, JEY5 (sst2Δ) expressing the EDG-2 receptor was compared to the parental SY2069 strain (SST2^+). […] As a control, JEY5+EDG-2 was assayed in 2% glucose such that the GAL1 promoter would be repressed and thus not expressing the edg-2 gene (glucose repression is described in detail by Johnston, M., and Carlson, M. (1992) in The molecular and cellular biology of the yeast Saccharomyces: gene expression (Broach, J. R., Pringle, J. R., and Jones, E. W., eds), pp. 193-281, Cold Spring Harbor Laborartory Press, Plainview, N.Y.). lacZ assays in response to phospholipids: JEY5+pJE15 was grown on SC media containing either 2% galactose or 2% glucose lacking uracil to an approximate optical density of 0.1-0.5 prior to the addition of lipid or α-factor. LPA and other glycerophospholipids (Avanti Polar Lipids) were dissolved in chloroform and dried down under vacuum immediately prior to experiments and resuspended in BBS/EDTA (50 mM NH4HCO3, 104 mM NaCl, 250 mM EDTA2Na) at 1 mg/ml with sonication until the solution was clear. Sphingosine-1-phosphate (Matreya) was resuspended in ethanol/water (9:1) pH 3.0 immediately prior to use. Fatty Acid Free Bovine Serum Albumin was obtained from Sigma (St. Louis, Mo.) and used at 0.1 mg/ml in BBS/EDTA. Cells were allowed to grow for the indicated time (7 hours for dose response experiments) prior to assaying. 100 μl of yeast culture were then added to 900 μl assay buffer (per liter: 60 mM Na2HPO4, 40 mM NaH2PO4, 10 mM KCl, 0.1 mM MgSO4, pH 7.0 plus 2.7 ml β-mercaptoethanol per liter) plus 50 μl 0.1%SDS+three drops Chloroform. Cells were vortexed for 10 seconds and incubated for 5 minutes at 28° C.

T1 sequence (Q92633 whole entry): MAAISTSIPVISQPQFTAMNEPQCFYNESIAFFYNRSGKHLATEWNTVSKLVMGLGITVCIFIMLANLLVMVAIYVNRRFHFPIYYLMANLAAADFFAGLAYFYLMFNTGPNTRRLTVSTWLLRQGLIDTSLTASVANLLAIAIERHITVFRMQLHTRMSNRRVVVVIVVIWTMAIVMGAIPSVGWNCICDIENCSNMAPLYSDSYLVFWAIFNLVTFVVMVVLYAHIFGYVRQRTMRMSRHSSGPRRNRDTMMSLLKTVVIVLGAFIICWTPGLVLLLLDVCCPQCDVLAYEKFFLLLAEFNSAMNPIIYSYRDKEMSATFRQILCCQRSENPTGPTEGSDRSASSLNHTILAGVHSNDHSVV

1-acyl-2-hydroxy-sn-glycero-3-phosphate [LPA]
concentration at which toxicity was seen / above which testing was not possible due to toxicity (yeast cells): above 600 μM
response of FUS1::lacZ to LPA, sst2- derivative (human LPA receptor EDG-2; JEY5 (sst2Δ) expressing EDG-2, 200 μM LPA, galactose, seven hours): activated
activation of EDG-2 (FUS1::lacZ activity) (human LPA receptor EDG-2; seven hours): specifically responds
response of FUS1::lacZ to LPA, SST2+ strain (human LPA receptor EDG-2; parental SY2069 strain (SST2+) expressing EDG-2): unresponsive
maximal stimulation of lacZ activity as compared to vector control (human LPA receptor EDG-2; time course, at 7 hours): four-fold

1-palmitoyl-2-oleoyl-phosphatidylglycerol
activity towards EDG-2 of liposome preparations on their own (human LPA receptor EDG-2): no activity

CCCCCCCCCCCCC/C=C/[C@@H](O)[C@@H](N)COP(=O)(O)O [Sphingosine-1-phosphate]
activation of EDG-2 (FUS1::lacZ activity) (human LPA receptor EDG-2; seven hours): no other lyso-glycerolphospholipid or Sphingosine-1-phosphate activated EDG-2 as well as did LPA
activation of EDG-2 (FUS1::lacZ activity) (human LPA receptor EDG-2; seven hours, listed as sphingosine-1-phosphate): does not respond

dioleoyl-phosphatidylcholine
activity towards EDG-2 of liposome preparations on their own (human LPA receptor EDG-2): no activity
